The source of these data is US11999739B2, “Antimicrobials methods of making and using the same” (BIOVERSYS AG, priority 2016, dated 2024).

The subject of test [1] is Staphylococcus aureus (S. aureus) 11540 strain. Briefly: Standard microdilution MIC assay, S. aureus. It is filed as cell-based. An outline of the steps:
(§1)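 Broth microdilution per CLSI M7-A8 guidelines, with reference-strain quality control run in the same design; MIC determined per strain. Activity scored +/− against a 16 micrograms/mL cutoff.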
On the technique in general: Broth dilution looks for growth in wells or tubes with falling amounts of substance.

Test [2] concerns Escherichia coli strain ATCC25922. The test is described as follows: Standard microdilution MIC assay, E. coli. The test is classed as cell-based. An outline of the steps:
as §1

By MIC is commonly meant the lowest concentration found to suppress growth. With `CC(=N)NCC[C@@H]1CCC[C@@H](c2ccc(-n3cc4cc(-c5cc(CCCC(C)(C)N)cc(Cl)c5F)[nH]c4nc3=O)cc2)N1` [Compound 7], the MIC in test [1] and in test [2] was no more than 16 µg/mL throughout.
For the compound `CC(=N)NCC[C@@H]1CCC[C@@H](c2ccc(-n3cc4cc(-c5cc(CCC[C@@H](N)CF)cc(C(F)(F)F)c5)[nH]c4nc3=O)cc2OC(F)(F)F)N1` [Compound 215], the MIC in test [1] and in test [2] was no more than 16 µg/mL in each case.
With `N=C(CF)NCC[C@@H]1COC[C@@H](c2ccc(-n3cc4cc(-c5cc(CCC[C@@H](N)CO)cc(Cl)c5F)[nH]c4nc3=O)cc2)N1` [Compound 55], the MIC in test [1] and in test [2] was no more than 16 µg/mL each time.
Consider `CC(=N)NCCCN[C@@H](C)c1ccc(-n2cc3cc(-c4cc(CCCC5(N)CC5)cc(Cl)c4F)[nH]c3nc2=O)cc1F` [Compound 148], for which the MIC in test [1] and in test [2] was no more than 16 µg/mL each time.
As to `C=C[C@@H](N)CCCc1cc(Cl)c(F)c(-c2cc3cn(-c4ccc([C@H](CO)NCCCNC(C)=N)cc4)c(=O)nc3[nH]2)c1` [Compound 158], the MIC in test [1] and in test [2] was no more than 16 µg/mL in each case.
`N=C(CF)NCC[C@H](CO)NCc1ccc(-n2cc3cc(-c4cc(CCC[C@@H](N)CO)cc(Cl)c4F)[nH]c3nc2=O)cc1` [Compound 84]: the MIC in test [1] and in test [2] was no more than 16 µg/mL each time.
As for `C[C@H](N)CCCc1cc(Cl)c(F)c(-c2cc3cn(-c4ccc([C@@H]5CCC[C@@H](CCNC(=N)CF)N5C)cc4)c(=O)nc3[nH]2)c1` [Compound 108], the minimum inhibitory concentration (MIC) in test [1] and in test [2] was no more than 16 µg/mL in each case.
Take `C[C@H](N)CCCc1cc(Cl)c(F)c(-c2cc3cn(-c4ccc([C@H](C)N[C@@H](CO)CCNC(=N)CF)cc4)c(=O)nc3[nH]2)c1` [Compound 97]: the MIC in test [1] and in test [2] was no more than 16 µg/mL throughout.
Regarding `COC[C@H](N)CCCc1cc(-c2cc3cn(-c4ccc([C@@H]5CCC[C@@H](C[C@@H](C)NC(C)=N)N5)cc4)c(=O)nc3[nH]2)c(F)c(C(F)(F)F)c1` [Compound 339], the MIC in test [1] and in test [2] was no more than 16 µg/mL throughout.
For `CC(=N)NCC[C@@H]1CCC[C@@H](c2ccc(-n3cc4cc(-c5cc(CCC[C@H](C)N)cc(Cl)c5F)[nH]c4nc3=O)cc2C)N1` [Compound 232], the MIC in test [1] and in test [2] was no more than 16 µg/mL throughout.
Regarding `C=CC(CCNC(=N)CF)NCc1ccc(-n2cc3cc(-c4cc(CCC(C)(C)CN)cc(Cl)c4F)[nH]c3nc2=O)cc1` (stereo not drawn) [Compound 27], the MIC in test [1] and in test [2] was no more than 16 µg/mL throughout.
On to `COC[C@H](N)CCCc1cc(-c2cc3cn(-c4ccc([C@@H]5CCC[C@@H](CCNC(C)=N)N5)c(OC)c4)c(=O)nc3[nH]2)c(F)c(C(F)(F)F)c1` [Compound 194], for which the MIC in test [1] and in test [2] was no more than 16 µg/mL throughout.
As to `COC[C@H](N)CCCc1cc(-c2cc3cn(-c4ccc([C@@H]5CCC[C@@H](CCNC(C)=N)N5)c(SC)c4)c(=O)nc3[nH]2)cc(C(F)(F)F)c1` [Compound 202], the MIC in test [1] and in test [2] was no more than 16 µg/mL each time.
As to `COC[C@H](N)CCCc1cc(OC(F)(F)F)c(F)c(-c2cc3cn(-c4ccc([C@@H]5CCC[C@@H](CCNC(C)=N)N5)c(SC)c4)c(=O)nc3[nH]2)c1` [Compound 198], the MIC in test [1] and in test [2] was no more than 16 µg/mL throughout.
Turning to `C=C[C@@H](N)CCCc1cc(Cl)c(F)c(-c2cc3cn(-c4ccc(C5(NCCCNC(C)=N)CC5)cc4)c(=O)nc3[nH]2)c1` [Compound 144], the MIC in test [1] and in test [2] was no more than 16 µg/mL throughout.
On to `C=C[C@@H](N)CCCc1cc(Cl)c(F)c(-c2cc3cn(-c4ccc([C@@H]5CCC[C@@H](CCNC(C)=N)N5C)cc4)c(=O)nc3[nH]2)c1` [Compound 124], for which the MIC in test [1] and in test [2] was no more than 16 µg/mL in each case.
With `COc1cc(-n2cc3cc(-c4cc(CCC[C@@H](N)CF)cc(C(F)(F)F)c4)[nH]c3nc2=O)ccc1[C@@H]1CCC[C@@H](CCNC(C)=N)N1` [Compound 209], the MIC in test [1] and in test [2] was no more than 16 µg/mL in each case.
`C=C[C@@H](CCNC(C)=N)N[C@@H](C)c1ccc(-n2cc3cc(-c4cc(CCC[C@@H](N)CO)cc(Cl)c4F)[nH]c3nc2=O)cc1` [Compound 151]: the MIC in test [1] and in test [2] was no more than 16 µg/mL throughout.
For the compound `CSc1cc(-n2cc3cc(-c4cc(CCC(F)(F)CN)cc(Cl)c4F)[nH]c3nc2=O)ccc1[C@@H]1CCC[C@@H](CCNC(C)=N)N1` [Compound 129], the MIC in test [1] and in test [2] was no more than 16 µg/mL in each case.
As to `CC(=N)NCC[C@@H]1CCC[C@@H](c2ccc(-n3cc4cc(-c5cc(CCC[C@@H](N)CF)cc(C(F)(F)F)c5)[nH]c4nc3=O)cc2F)N1` [Compound 205], the MIC in test [1] and in test [2] was no more than 16 µg/mL each time.
For the compound `CC(=N)NCC[C@@H]1CCC[C@@H](c2ccc(-n3cc4cc(-c5cc(CCC[C@H](C)N)cc(Cl)c5F)[nH]c4nc3=O)cc2Cl)N1` [Compound 175], the MIC in test [1] and in test [2] was no more than 16 µg/mL each time.
Turning to `C=CC(CCNC(=N)CCOCC)NCc1ccc(-n2cc3cc(-c4cc(CCC[C@H](C)N)cc(Cl)c4F)[nH]c3nc2=O)cc1` (stereo partly drawn) [Compound 10], the MIC in test [1] and in test [2] was no more than 16 µg/mL each time.
With `C[C@H](N)CCCc1cc(Cl)c(F)c(-c2cc3cn(-c4ccc([C@@H]5COC[C@@H](CCNC(=N)CF)N5)cc4)c(=O)nc3[nH]2)c1` [Compound 75], the MIC in test [1] and in test [2] was no more than 16 µg/mL throughout.
Consider `C=C[C@H](N)CCCc1cc(Cl)c(F)c(-c2cc3cn(-c4ccc([C@@H]5CCC[C@@H](CCNC(C)=N)N5CCCF)cc4)c(=O)nc3[nH]2)c1` [Compound 343], for which the MIC in test [1] and in test [2] was no more than 16 µg/mL throughout.
Take `CSC[C@@H](CCNC(=N)CF)NCc1ccc(-n2cc3cc(-c4cc(CCC[C@H](C)N)cc(Cl)c4F)[nH]c3nc2=O)cc1` [Compound 88]: the MIC in test [1] and in test [2] was no more than 16 µg/mL each time.
With `CC(=N)NCC[C@@H]1CCC[C@@H](c2ccc(-n3cc4cc(-c5cc(CCC[C@H](C)N)cc(Cl)c5F)[nH]c4nc3=O)cc2)N1CCn1ccnc1` [Compound 262], the MIC in test [1] and in test [2] was no more than 16 µg/mL each time.
`CCCC(=N)NCC[C@@H]1CCC[C@@H](c2ccc(-n3cc4cc(-c5cc(CCC[C@H](C)N)cc(Cl)c5F)[nH]c4nc3=O)cc2SC)N1` [Compound 353]: the MIC in test [1] and in test [2] was no more than 16 µg/mL each time.
For `CC(=N)NCC[C@@H]1CCC[C@@H](c2ccc(-n3cc4cc(-c5cc(CCC[C@@H](N)C6CC6)cc(Cl)c5F)[nH]c4nc3=O)cc2S(C)(=O)=O)N1` [Compound 273], the MIC in test [1] and in test [2] was no more than 16 µg/mL throughout.
Regarding `CC(=N)NC[C@@H]1CCC[C@@H](c2ccc(-n3cc4cc(-c5cc(CCC[C@H](C)N)cc(Cl)c5F)[nH]c4nc3=O)cc2)N1` [Compound 363], the MIC in test [1] and in test [2] was no more than 16 µg/mL throughout.
As for `CC(=N)NCC[C@@H]1COC[C@@H](c2ccc(-n3cc4cc(-c5cc(CCC[C@@H](N)CO)cc(Cl)c5F)[nH]c4nc3=O)cc2)N1` [Compound 54], the MIC in test [1] and in test [2] was no more than 16 µg/mL in each case.
In the case of `C[C@H](N)CCCc1cc(Cl)c(F)c(-c2cc3cn(-c4ccc([C@H](C)NCCCNC(=N)CF)c(F)c4)c(=O)nc3[nH]2)c1` [Compound 94], the MIC in test [1] and in test [2] was no more than 16 µg/mL each time.
With `C=C[C@H](N)CCCc1cc(-c2cc3cn(-c4ccc([C@@H]5CCC[C@@H](CCNC(C)=N)N5CCCF)c(SC)c4)c(=O)nc3[nH]2)cc(C(F)(F)F)c1` [Compound 342], the MIC in test [1] and in test [2] was no more than 16 µg/mL throughout.
For the compound `CC(=N)NCC[C@@H]1CCC[C@@H](c2ccc(-n3cc4cc(-c5cc(CCC[C@@H](N)C6CC6)cc(OC(F)(F)F)c5F)[nH]c4nc3=O)cc2OC(F)(F)F)N1` [Compound 213], the MIC in test [1] and in test [2] was no more than 16 µg/mL throughout.
With `C=C[C@@H](N)CCCc1cc(Cl)c(F)c(-c2cc3cn(-c4ccc([C@@H]5CCC[C@@H](CCNC(C)=N)N5)c(F)c4)c(=O)nc3[nH]2)c1` [Compound 166], the MIC in test [1] and in test [2] was no more than 16 µg/mL throughout.
As for `CC(=N)NCCCNCc1ccc(-n2cc3cc(-c4cc(CCCC(C)(C)N)cc(Cl)c4F)[nH]c3nc2=O)cc1F` [Compound 65], the MIC in test [1] and in test [2] was no more than 16 µg/mL each time.
Regarding `CC(=N)NCC[C@@H]1CCC[C@@H](c2ccc(-n3cc4cc(-c5cc(CCC(F)(F)CN)cc(Cl)c5F)[nH]c4nc3=O)cc2)N1C` [Compound 135], the MIC in test [1] and in test [2] was no more than 16 µg/mL each time.
As for `CC(=N)NCC[C@H](CN)NCc1ccc(-n2cc3cc(-c4cc(CCC[C@H](C)N)cc(Cl)c4F)[nH]c3nc2=O)cc1` [Compound 17], the MIC in test [1] and in test [2] was no more than 16 µg/mL each time.
For the compound `CC(=N)NCC[C@H](CO)N[C@@H](C)c1ccc(-n2cc3cc(-c4cc(CCC[C@@H](N)CO)cc(Cl)c4F)[nH]c3nc2=O)cc1F` [Compound 163], the MIC in test [1] and in test [2] was no more than 16 µg/mL each time.
With `C=C[C@H](N)CCCc1cc(-c2cc3cn(-c4ccc([C@@H]5CCC[C@@H](CCNC(C)=N)N5CCCF)c(F)c4)c(=O)nc3[nH]2)cc(C(F)(F)F)c1` [Compound 349], the MIC in test [1] and in test [2] was no more than 16 µg/mL in each case.
In the case of `CSc1cc(-n2cc3cc(-c4cc(CCC[C@H](C)N)cc(C(F)(F)F)c4)[nH]c3nc2=O)ccc1[C@@H]1CCC[C@@H](CCNC(C)=N)N1CCCF` [Compound 292], the MIC in test [1] and in test [2] was no more than 16 µg/mL each time.
On to `CSc1cc(-n2cc3cc(-c4cc(CCC[C@H](C)N)cc(C(F)(F)F)c4)[nH]c3nc2=O)cc(F)c1[C@@H]1CCC[C@@H](CCNC(C)=N)N1CCCF` [Compound 329], for which the MIC in test [1] and in test [2] was no more than 16 µg/mL throughout.
On to `COC[C@H](N)CCCc1cc(OC(F)(F)F)c(F)c(-c2cc3cn(-c4cc(F)c([C@@H]5CCC[C@@H](CCNC(C)=N)N5)c(F)c4)c(=O)nc3[nH]2)c1` [Compound 280], for which the MIC in test [1] and in test [2] was no more than 16 µg/mL each time.
